We go through 8 compounds from patent US20110117164A1, “Use of Additive Sites to Control Nitric Oxide Release from Nitric Oxide Donors Contained within Polymers” (priority 2004, published 2011).

Series [1] can be described thus: Air stability of isolated intramolecular diazeniumdiolates. The class given is physicochemical. The protocol:
The reaction of NO with 1f yielded a diazeniumdiolate (as determined by UV) that was initially air-stable, but decomposed after 12 hours even with storage at −20° C. […] Thus, the most air-stable intramolecular diazeniumdiolate that could be isolated was that of diamine 1e. Air stable bis-diazeniumdiolates of 1f and 1g may, however, be prepared when an exogenous base such as sodium methoxide is present in the reaction mixture.

A short description of series [2]: NO release from polymer films/coatings containing NO donor in PBS buffer at 37° C. by chemiluminescence. The format is physicochemical. The conditions noted are these: ~5 wt. % in PVC film plasticized with DOS (1:2), PBS buffer, 37° C., no KTpClPB. The protocol: Thermal stability of diazeniumdiolates. […] Kinetics. […] Use in Hydrophobic Systems.
In the absence of the KTpClPB, NO release decreases dramatically after approximately 1 hour. […] The decrease in NO release observed is believed to result from an increase in the pH within the organic polymer film, which decreases the decomposition rate of lipophilic diazeniumdiolates. As water diffuses into the film initiating NO release, secondary amine sites result. The secondary amine sites have a higher pKa than water and therefore deprotonate water to form hydroxide ions. The basic microdomain environment that results within the polymer, in turn, slows further decomposition of the remaining diazeniumdiolates that would generate NO. This retardation may occur as a result of the organic ammonium hydroxide microphases within the polymer, which in turn serves to stabilize the remaining diazeniumdiolates.
FT-IR were collected on Perken Elmer Spectrum VX. […] Elemental analyses were performed. Reagents. […] NO was purchased from Matheson Gases. […] General NO Addition Procedure. […] The products were finally collected and dried under vacuum. Molar Extinction Coefficients. […] The maximum wavelength and absorbance were collected. […] Kinetics Studies. […] The NO released was measured using chemiluminescence. […] Preparation of Polymer Films Containing Diazeniumdiolates. […] The membranes were covered and allowed to cure overnight. […] Polymerization to Form Boc-protected Diamine Copolymer.
General Procedure for Deprotection to Form Diamine Copolymer (c). 35 mg of the copolymer (b) was dissolved in 2 mL of dichloromethane and then 200 μL of TFA (trifluoroacetic acid) was added dropwise. The solution was stirred at room temperature for about 3 hours. The reaction mixture was diluted with 20 mL of dichloromethane, and the organic phase was then washed with sodium bicarbonate, water, and brine, and was dried with sodium sulfate. The solvent was evaporated and the resulting copolymer was dried under vacuum overnight. ^1H-NMR was performed to confirm the structure and actual composition of the copolymer. General Procedure for NO Loading to Form Polymer-Based NO Donor (d). 20 mg of the deprotected copolymer (c) was dissolved in 3 mL of dry THF and placed in a high pressure reactor with a stirring bar, and flushed with argon for about 10 minutes. 100% excess of sodium methoxide (with respect to free amine sites) was added and the reactor was closed. The reactor was purged with argon again for several times (e.g. ten times) over a 1 hour period and was charged with NO at 80 psi. The reaction mixture was stirred for 72 hours at room temperature. After the reaction was complete, the copolymer was precipitated with dry hexane under argon. The remaining solvent was removed using a vacuum, and the diazeniumdiolated copolymers (d) were examined by UV-Vis spectrum as well as NOA. This resulting copolymer was stored in sealed vials charged with argon in a freezer. Preparation of Polymer Films Containing Polymer-Based No Donor. Polymer membranes containing the polymer-based NO donor was prepared by dissolving 60.8 mg poly(vinyl chloride) (PVC), 30.4 mg dioctyl sebacate (DOS), and 9.1 mg poly(lactide-co-glycolide) (50:50) (PLGA 50:50) in 1.5 mL of freshly distilled tetrahydrofuran. […] A trilayer film configuration is employed to fabricate films. […] Four hours later the polymer cocktail was cast on top of the PVC layer. After another 4 hours, the PVC solution was cast again as a finish layer. The membrane was covered and allowed to cure overnight. Polymer films containing no additives were prepared in a similar manner. […] NO Release Measurements by Chemiluminescence. All NO measurements were performed using a Sievers Nitric Oxide Analyzer (NOA), model 280. The instrument was calibrated before each experiment using an internal two-point calibration (zero gas and 45 PPM). The flow rate was set to 200 mL/min with a cell pressure of 5.4 torr and an oxygen pressure of 6.0 psig. […]

A short description of series [3]: Thermal gravimetric analysis under nitrogen (thermal stability of diazeniumdiolates). The conditions noted are these: nitrogen atmosphere. The format is physicochemical.
The test system of another series is thrombus formation. The conditions noted are these: dispersed in a silicone rubber matrix; cited from earlier work.
The subject of the next series is platelet activity. Conditions: within a polymer coating on the inner walls of extracorporeal circuits; cited from earlier work.
The conditions of series [4]: donor and its diamine precursor; back react to potentially toxic nitrosamines; cited from earlier work.
For series [5] the following is noted: for t1/2 ("apparent" t1/2 and t1/2): buffer, pH 7.4; for k: first order decomposition, PBS buffer, pH 7.4, 37° C., n > 3.
From the text: UV-vis spectra were monitored on a Beckman DU 640B spectrophotometer.
Series [6] concerns cells after vascular injury. The conditions noted are these: cited from earlier work.
For series [7] the following is noted: in vivo; cited from earlier work.

The structures appear in SMILES notation.

With `CCCCCCN(CCCCCC)CCCCCCN` [Compound 1f, N,N-dihexylhexamethylene diamine], in series [1] (even with storage at −20° C.), the “time to decomposition of the initially air-stable diazeniumdiolate” value is 12 h.

On to `CCCCCCCCCCCCN(CCCCCCN)CCCCCCCCCCCC` [Compound 1g, N,N-didodecylhexamethylene diamine], for which the “air stability during work-up” value in series [1] (presence of oxygen during the work-up procedure) is reported as “immediately decomposes”.

With `CNCCCCCCN(C)/[N+]([O-])=N/O` [Compound 2a, (Z)-1-[N-methyl-N-[6-(N-methylammoniohexyl)amino]]-diazen-1-ium-1,2-diolate], in [2], the “total NO release profile from film without additive” value is reported as “releases all of its NO in a short period of time”. Also, in series [3], the “TNO loss (stable up to)” value worked out at 104 °C. In addition, in the series on thrombus formation, the “effect on thrombus formation” value is “prevent thrombus formation on the surface of intravascular sensors”. Further, the “effect on platelet activity” value in the series on platelet activity was “greatly reduce platelet activity”. The “leaching from polymer matrix” value in [4] is “tend to leach from the surface of the polymer matrix”. Further, in series [5], the “t1/2 ("apparent" t1/2 and t1/2)” value amounted to 67.2 ± 0.7 s; the k came out at 0.010 ± 0.0001 s⁻¹.

As to `CCNCCCCCCN(CC)/[N+]([O-])=N/O` [Compound 2b, (Z)-1-{N-Ethyl-N-[6-(N-ethylammoniohexyl)amino]}diazen-1-ium-1,2-diolate], in [3], the “TNO loss (stable up to)” value stood at 104 °C. In series [5], the “t1/2 ("apparent" t1/2 and t1/2)” value worked out at 347 ± 26 s; the k turned out to be 0.0020 ± 0.0001 s⁻¹.

Turning to `CCCNCCCCCCN(CCC)/[N+]([O-])=N/O` [Compound 2c, (Z)-1-{N-Propyl-N-[6-(N-propylammoniohexyl)amino]}-diazen-1-ium-1,2-diolate], the “TNO loss (stable up to)” value in series [3] is 104 °C. Besides, in [5], the “t1/2 ("apparent" t1/2 and t1/2)” value is given as 319 ± 23 s; the k was 0.0022 ± 0.0001 s⁻¹.

`CCCCCNCCCCCCN(CCCCC)/[N+]([O-])=N/O` [Compound 2e, (Z)-1-{N-Pentyl-N-[6-(N-pentylammoniohexyl)amino]}-diazen-1-ium-1,2-diolate]: the “TNO loss (stable up to)” value in series [3] was 104 °C. Further, in [5], the “t1/2 ("apparent" t1/2 and t1/2)” value was 279 ± 31 s; the k came out at 0.0025 ± 0.0001 s⁻¹.

Consider `NCCN(CCN)/[N+]([O-])=N/O` [DETA/NO], for which the “effect on cell proliferation after vascular injury” value in [6] was “substantially suppress overproliferation of cells after vascular injury”.

In the case of `O=C([O-])C1CCCN1[N+]([O-])=N[O-].[Na+].[Na+]` (centres unmarked) [PROLI/NO], the “effect when infused into blood” value in series [7] was “relieve muscle spasms”.
